Measured values from the supplement of paper PMC9663587.

Tests used:
[1] = compound: CCc1cnn2c(NCc3ccc[n+]([O-])c3)cc(N3CCCC[C@H]3CCO)nc12
LEE011/Ribociclib [2] = compound: T1, CN(C)C(=O)c1cc2cnc(Nc3ccc(N4CCNCC4)cn3)nc2n1C1CCCC1 [LEE011/Ribociclib]
Doxorubicin = compound: COc1cccc2c1C(=O)c1c(O)c3c(c(O)c1C2=O)C[C@@](O)(C(=O)CO)C[C@@H]3O[C@H]1C[C@H](N)[C@H](O)[C@H](C)O1 [Doxorubicin]
Pictilisib/GDC0941 = compound: CS(=O)(=O)N1CCN(Cc2cc3nc(-c4cccc5[nH]ncc45)nc(N4CCOCC4)c3s2)CC1 [Pictilisib/GDC0941]
Ceritinib/LDK378 = compound: Cc1cc(Nc2ncc(Cl)c(Nc3ccccc3S(=O)(=O)C(C)C)n2)c(OC(C)C)cc1C1CCNCC1 [Ceritinib/LDK378]
[3] = compound: Cc1nn(C)c(COc2ccc(N3CCN(S(=O)(=O)N(C)C)CC3)cc2)c1-c1cccc2c(CCCOc3cccc4ccccc34)c(C(=O)O)n(CCN3CCOCC3)c12
YKL-5-124 = compound: C=CC(=O)Nc1ccc(C(=O)Nc2[nH]nc3c2CN(C(=O)N[C@H](CN(C)C)c2ccccc2)C3(C)C)cc1 [YKL-5-124]; test: increase in dead-cell fraction, 72 h; higher = more death;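 also: breast cancer cell lines in 384-well plates, stained with Hoechst plus LIVE/DEAD far red dye and imaged, cells above an LDR intensity threshold counted dead, Hoechst-negative corpses included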
BSJ-03-123 = compound: CC(=O)c1c(C)c2cnc(Nc3ccc(N4CCN(CCOCCOCCOCCNC(=O)COc5cccc6c5C(=O)N(C5CCC(=O)NC5=O)C6=O)CC4)cn3)nc2n(C2CCCC2)c1=O [BSJ-03-123]; test: as above
[4] = compound: CC(=O)c1c(C)c2cnc(Nc3ccc(N4CCNCC4)cn3)nc2n(C2CCCC2)c1=O; test: as above
[5] = compound: CCN1CCN(Cc2ccc(Nc3ncc(F)c(-c4cc(F)c5nc(C)n(C(C)C)c5c4)n3)nc2)CC1; test: as above
Neratinib/HKI272 = compound: CCOc1cc2ncc(C#N)c(Nc3ccc(OCc4ccccn4)c(Cl)c3)c2cc1NC(=O)/C=C/CN(C)C [Neratinib/HKI272]; test: as above
[6] = compound: CCc1cnn2c(NCc3ccc[n+]([O-])c3)cc(N3CCCC[C@H]3CCO)nc12; test: as above
LEE011/Ribociclib [7] = compound: T1, LEE011/Ribociclib; test: as above
THZ531 = compound: CN(C)C/C=C/C(=O)Nc1ccc(C(=O)N2CCC[C@@H](Nc3ncc(Cl)c(-c4c[nH]c5ccccc45)n3)C2)cc1 [THZ531]; test: as above
THZ1 = compound: CN(C)C/C=C/C(=O)Nc1ccc(C(=O)Nc2cccc(Nc3ncc(Cl)c(-c4c[nH]c5ccccc45)n3)c2)cc1 [THZ1]; test: as above
Flavopiridol = compound: CN1CC[C@H](c2c(O)cc(O)c3c(=O)cc(-c4ccccc4Cl)oc23)[C@H](O)C1 [Flavopiridol]; test: as above
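For GR50, 72 h in this document: breast cancer and non-malignant breast epithelial cell lines, Deep Dye Drop or Dye Drop imaging, nine half-log doses, GR normalized to time-zero plates and DMSO-only controls.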

HCC38
GR50, 72 h [1]: 0.0126 µM
GR50, 72 h (LEE011/Ribociclib [2]): 0.537 µM
GR50, 72 h (Doxorubicin): 0.00955 µM
GR50, 72 h (Pictilisib/GDC0941): 6.55 µM
GR50, 72 h (Ceritinib/LDK378): 1.83 µM
GR50, 72 h [3]: > 10 µM
increase in dead-cell fraction (YKL-5-124; 0.001 µM): 0.0525
increase in dead-cell fraction (YKL-5-124; 0.003162 µM): 0.0845
increase in dead-cell fraction (YKL-5-124; 0.01 µM): 0.102
increase in dead-cell fraction (YKL-5-124; 0.03162 µM): 0.109
increase in dead-cell fraction (YKL-5-124; 0.1 µM): 0.115
increase in dead-cell fraction (YKL-5-124; 0.3162 µM): 0.184
increase in dead-cell fraction (YKL-5-124; 1 µM): 0.197
increase in dead-cell fraction (YKL-5-124; 3.162 µM): 0.147
increase in dead-cell fraction (YKL-5-124; 10 µM): 0.407
increase in dead-cell fraction (BSJ-03-123; 0.001 µM): 0.0173
increase in dead-cell fraction (BSJ-03-123; 0.003162 µM): 0.0254
increase in dead-cell fraction (BSJ-03-123; 0.01 µM): 0.0387
increase in dead-cell fraction (BSJ-03-123; 0.03162 µM): 0.0378
increase in dead-cell fraction (BSJ-03-123; 0.1 µM): 0.0296
increase in dead-cell fraction (BSJ-03-123; 0.3162 µM): 0.0344
increase in dead-cell fraction (BSJ-03-123; 1 µM): 0.0408
increase in dead-cell fraction (BSJ-03-123; 3.162 µM): 0.0384
increase in dead-cell fraction (BSJ-03-123; 10 µM): 0.172
increase in dead-cell fraction ([4]; 0.0003162 µM): 0.0028
increase in dead-cell fraction ([4]; 0.001 µM): -0.0069
increase in dead-cell fraction ([4]; 0.003162 µM): 0.0044
increase in dead-cell fraction ([4]; 0.01 µM): 0.0202
increase in dead-cell fraction ([4]; 0.03162 µM): 0.0549
increase in dead-cell fraction ([4]; 0.1 µM): 0.0669
increase in dead-cell fraction ([4]; 0.3162 µM): 0.0676
increase in dead-cell fraction ([4]; 1 µM): 0.0915
increase in dead-cell fraction ([4]; 3.162 µM): 0.0488
increase in dead-cell fraction ([5]; 0.001 µM): 0.0177
increase in dead-cell fraction ([5]; 0.003162 µM): 0.0096
increase in dead-cell fraction ([5]; 0.01 µM): 0.0258
increase in dead-cell fraction ([5]; 0.03162 µM): 0.0545
increase in dead-cell fraction ([5]; 0.1 µM): 0.0758
increase in dead-cell fraction ([5]; 0.3162 µM): 0.0601
increase in dead-cell fraction ([5]; 1 µM): 0.0699
increase in dead-cell fraction ([5]; 3.162 µM): 0.0988
increase in dead-cell fraction ([5]; 10 µM): 0.415
increase in dead-cell fraction (Neratinib/HKI272; 0.0003162 µM): 0.0178
increase in dead-cell fraction (Neratinib/HKI272; 0.001 µM): 0.006
increase in dead-cell fraction (Neratinib/HKI272; 0.003162 µM): 0.0166
increase in dead-cell fraction (Neratinib/HKI272; 0.01 µM): 0.0088
increase in dead-cell fraction (Neratinib/HKI272; 0.03162 µM): 0.0102
increase in dead-cell fraction (Neratinib/HKI272; 0.1 µM): -0.0035
increase in dead-cell fraction (Neratinib/HKI272; 0.3162 µM): 0.0102
increase in dead-cell fraction (Neratinib/HKI272; 1 µM): 0.0009
increase in dead-cell fraction (Neratinib/HKI272; 3.162 µM): 0.0842
increase in dead-cell fraction ([6]; 0.0001 µM): -0.0032
increase in dead-cell fraction ([6]; 0.0003162 µM): -0.0125
increase in dead-cell fraction ([6]; 0.001 µM): -0.0108
increase in dead-cell fraction ([6]; 0.003162 µM): -0.0127
increase in dead-cell fraction ([6]; 0.01 µM): 0.0353
increase in dead-cell fraction ([6]; 0.03162 µM): 0.436
increase in dead-cell fraction ([6]; 0.1 µM): 0.514
increase in dead-cell fraction ([6]; 0.3162 µM): 0.511
increase in dead-cell fraction ([6]; 1 µM): 0.536
increase in dead-cell fraction (LEE011/Ribociclib [7]; 0.001 µM): -0.0042
increase in dead-cell fraction (LEE011/Ribociclib [7]; 0.003162 µM): 0.0013
increase in dead-cell fraction (LEE011/Ribociclib [7]; 0.01 µM): 0.0118
increase in dead-cell fraction (LEE011/Ribociclib [7]; 0.03162 µM): 0.0031
increase in dead-cell fraction (LEE011/Ribociclib [7]; 0.1 µM): 0.0263
increase in dead-cell fraction (LEE011/Ribociclib [7]; 0.3162 µM): 0.0209
increase in dead-cell fraction (LEE011/Ribociclib [7]; 1 µM): 0.026
increase in dead-cell fraction (LEE011/Ribociclib [7]; 3.162 µM): 0.0204
increase in dead-cell fraction (LEE011/Ribociclib [7]; 10 µM): 0.0467
increase in dead-cell fraction (THZ531; 0.0001 µM): -0.0063
increase in dead-cell fraction (THZ531; 0.0003162 µM): 0.0002
increase in dead-cell fraction (THZ531; 0.001 µM): 0.0018
increase in dead-cell fraction (THZ531; 0.003162 µM): 0.0016
increase in dead-cell fraction (THZ531; 0.01 µM): -0.0096
increase in dead-cell fraction (THZ531; 0.03162 µM): 0.0087
increase in dead-cell fraction (THZ531; 0.1 µM): 0.0251
increase in dead-cell fraction (THZ531; 0.3162 µM): 0.156
increase in dead-cell fraction (THZ531; 1 µM): 0.327
increase in dead-cell fraction (THZ1; 0.0001 µM): -0.0033
increase in dead-cell fraction (THZ1; 0.0003162 µM): -0.0036
increase in dead-cell fraction (THZ1; 0.001 µM): -0.0076
increase in dead-cell fraction (THZ1; 0.003162 µM): -0.0032
increase in dead-cell fraction (THZ1; 0.01 µM): 0.0133
increase in dead-cell fraction (THZ1; 0.03162 µM): 0.0431
increase in dead-cell fraction (THZ1; 0.1 µM): 0.249
increase in dead-cell fraction (THZ1; 0.3162 µM): 0.303
increase in dead-cell fraction (THZ1; 1 µM): 0.593
increase in dead-cell fraction (Flavopiridol; 0.0001 µM): -0.0026
increase in dead-cell fraction (Flavopiridol; 0.0003162 µM): -0.0024
increase in dead-cell fraction (Flavopiridol; 0.001 µM): -0.0081
increase in dead-cell fraction (Flavopiridol; 0.003162 µM): 0.0129
increase in dead-cell fraction (Flavopiridol; 0.01 µM): 0.0083
increase in dead-cell fraction (Flavopiridol; 0.03162 µM): 0.0066
increase in dead-cell fraction (Flavopiridol; 0.1 µM): 0.0013
increase in dead-cell fraction (Flavopiridol; 0.3162 µM): 0.112
increase in dead-cell fraction (Flavopiridol; 1 µM): 0.449
